“And” between values parts separate entries of the source, which are not always exact repeats. Equal entries are not always repeated. Where two headings read alike, the source gives them in different places.

One experiment concerns C57BL/6J mice after CSDS. Description: CSDS model, social interaction test. Format: in vivo. On the procedure:
The 10‐day CSDS paradigm was conducted as previously described.^[ [24] ^] CD‐1 aggressive mice were singly housed in defeat cages on one side of a perforated plexiglass partition 24 h before the defeat session. Experimental C57BL/6J mice were placed daily on the resident cage side of a novel CD‐1 aggressor that rapidly initiated a physical attack on the intruder. After 10‐min of social defeat, the intruder mice were housed on the opposite side of the partition within a shared home cage, experiencing further sensory contact for the subsequent 24 h. In contrast, control mice were maintained in their home cages and allowed to explore the empty defeat cages for 10 min each day.
C57BL/6J mice, comprising both control and experimental groups, were placed individually into the social open field with a plexiglass enclosure positioned along the side wall. Movement parameters, including the time spent in the interaction zone, corner zones, and locomotion, were monitored and analyzed over the two test sessions using the AnyMaze Tracking System. In the first session, the mice freely explored the arena for 2.5 min. Then, a new aggressive CD‐1 mouse was introduced into the plexiglass enclosure, and the experimental mice returned to the arena for the second 2.5‐min session. The social interaction ratio was determined as the ratio between the time the experimental mice spent in the interaction zone when the target CD‐1 was present and the time spent in the zone when it was absent.

The target in a further experiment is T1, Kir4.1 (Homo sapiens, UniProt P78508).
T1 construct: host or cells: CHO-K1
T1 sequence (P78508 1-379): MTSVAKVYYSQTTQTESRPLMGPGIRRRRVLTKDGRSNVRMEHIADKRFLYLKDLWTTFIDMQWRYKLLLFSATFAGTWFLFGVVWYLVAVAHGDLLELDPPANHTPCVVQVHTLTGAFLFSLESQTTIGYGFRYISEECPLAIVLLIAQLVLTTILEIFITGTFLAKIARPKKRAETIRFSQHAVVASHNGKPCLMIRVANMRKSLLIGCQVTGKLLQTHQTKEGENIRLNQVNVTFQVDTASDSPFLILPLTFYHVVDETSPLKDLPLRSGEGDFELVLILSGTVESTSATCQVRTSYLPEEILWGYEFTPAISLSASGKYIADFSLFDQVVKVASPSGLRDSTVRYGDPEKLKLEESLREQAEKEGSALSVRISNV
Description: Whole-cell patch clamp, Kir4.1 currents in transfected CHO-K1 cells. The class given is cell-based. Particulars: for inhibition at 1 µM: CHO-K1, 1 μM; for inhibition at 10 µM: CHO-K1, 10 μM; for IC50: whole-cell patch clamp. The essentials: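 Transiently transfected CHO-K1 cells (with EGFP), whole-cell voltage clamp at room temperature; pipette 140 mM KCl pH 7.2, bath 140 mM NaCl/5 mM KCl pH 7.4. Currents evoked from −80 mV holding by a step to −120 mV then ramp to +50 mV; compounds applied by perfusion.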

For another experiment, the target named is T2, hERG (Homo sapiens, UniProt Q12809).
T2 construct: expressed in transfected cells; host or cells: CHO-hERG
Description: hERG inhibition (QPatch, CHO-hERG cells). The class given is cell-based. The protocol: CHO‐hERG cells were cultured to 60–80% confluency in 175‐cm^2 flasks, washed with PBS, and digested with detachin. After centrifugation, the cells were resuspended in medium at 2–5×10^6 mL^−1. Patch‐clamp recordings were performed using a QPatch with extracellular solution (140 NaCl, 5 KCl, 2 CaCl2, 1 MgCl2, 10 HEPES, 10 glucose, pH 7.4) and intracellular solution (145 KCl, 1 MgCl2, 5 EGTA, 10 HEPES, 5 Mg‐ATP, pH 7.3). Cells were clamped at −80 mV, stimulated with a 50 ms pre‐pulse to −50 mV, followed by 2 s depolarization to +40 mV, and 2 s repolarization to −50 mV, repeated every 5 s. After baseline recording, the test compound at various concentrations or 300 nM cisapride (positive control) was applied.
On the technique in general: hERG is a cardiac potassium channel; its block is linked to QT prolongation.

T2 sequence (Q12809 whole entry): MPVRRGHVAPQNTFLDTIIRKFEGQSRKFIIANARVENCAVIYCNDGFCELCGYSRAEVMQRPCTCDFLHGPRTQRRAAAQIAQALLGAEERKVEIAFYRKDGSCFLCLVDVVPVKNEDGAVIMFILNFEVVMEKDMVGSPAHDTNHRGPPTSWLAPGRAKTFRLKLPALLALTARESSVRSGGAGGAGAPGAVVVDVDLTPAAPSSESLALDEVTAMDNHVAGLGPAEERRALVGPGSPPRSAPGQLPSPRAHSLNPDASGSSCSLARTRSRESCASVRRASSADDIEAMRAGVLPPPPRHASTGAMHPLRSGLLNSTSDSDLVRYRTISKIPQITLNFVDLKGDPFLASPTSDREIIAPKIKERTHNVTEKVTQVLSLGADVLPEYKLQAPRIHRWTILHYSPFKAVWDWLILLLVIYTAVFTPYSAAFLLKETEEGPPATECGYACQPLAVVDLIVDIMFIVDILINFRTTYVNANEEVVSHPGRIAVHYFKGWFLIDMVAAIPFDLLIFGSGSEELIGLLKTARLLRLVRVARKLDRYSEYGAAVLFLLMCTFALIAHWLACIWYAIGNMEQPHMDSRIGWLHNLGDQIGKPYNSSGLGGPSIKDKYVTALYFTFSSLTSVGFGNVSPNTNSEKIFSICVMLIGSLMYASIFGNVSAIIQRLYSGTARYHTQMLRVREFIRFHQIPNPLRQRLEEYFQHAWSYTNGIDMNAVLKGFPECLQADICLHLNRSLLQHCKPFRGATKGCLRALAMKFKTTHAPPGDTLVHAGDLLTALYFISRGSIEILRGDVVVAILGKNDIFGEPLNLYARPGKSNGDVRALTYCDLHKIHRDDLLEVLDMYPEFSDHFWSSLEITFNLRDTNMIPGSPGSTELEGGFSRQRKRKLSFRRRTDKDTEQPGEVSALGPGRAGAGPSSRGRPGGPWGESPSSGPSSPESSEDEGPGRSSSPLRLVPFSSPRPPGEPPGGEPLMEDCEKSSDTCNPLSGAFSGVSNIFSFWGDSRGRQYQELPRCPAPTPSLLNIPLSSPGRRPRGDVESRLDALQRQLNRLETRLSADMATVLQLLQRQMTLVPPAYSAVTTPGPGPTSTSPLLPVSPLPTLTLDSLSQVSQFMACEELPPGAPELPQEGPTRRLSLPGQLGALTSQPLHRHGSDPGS

Regarding `c1ccc2c(c1)oc1ccc(Nc3ccnc(NCCCN4CCOCC4)n3)cc12` [JX3212, N^4-(dibenzo[b,d]furan-2-yl)-N^2-(3-morpholinopropyl)pyrimidine-2,4-diamine], the “SIT--Time in interaction zone (s), single mice” value with C57BL/6J mice after CSDS (10 mg/kg, session not given) is 83.5 s and 59.3 s and 49.8 s and 72.2 s and 60.4 s and 74.9 s and 82.2 s and 43.8 s. Besides, the “CSDS: time spent in corners in SIT (in words)” value in the experiment with C57BL/6J mice after CSDS (single i.p. injection 10 mg kg−1) was “significant decrease in the time spent in corners”. The inhibition at 0.5 µM on Kir4.1 (CHO-K1, 0.5 μM, +50 mV, read-out: Kir4.1 Inhibition ± SD (%) at 0.5 μM, +50 mV) is 82.8 ± 1.51%; at Kir4.1 (CHO-K1, 0.5 μM, -120 mV, read-out: Kir4.1 Inhibition ± SD (%) at 0.5 μM, -120 mV), 73.2 ± 3.59%; on Kir4.1 (CHO-K1, 0.5 µM, read-out: Kir4.1 inhibition at 0.5 µM), over 60%. In addition, the inhibition at 1 µM was determined as 82.5 ± 5.51% at Kir4.1 (+50 mV, read-out: Kir4.1 Inhibition ± SD (%) at 1 μM, +50 mV) and 84.5 ± 3.09% on Kir4.1 (-120 mV, read-out: Kir4.1 Inhibition ± SD (%) at 1 μM, -120 mV). Moreover, the inhibition at 3 µM on Kir4.1 (CHO-K1, 3 µM, mean ± SEM, read-out: current inhibition, Kir4.1 WT) worked out at 92.4 ± 2.25%; at Kir4.1 (CHO-K1, JX3212 3 µM (Fig 2A), read-out: Kir isoforms: Kir4.1 inhibition, single recordings), 94.9%; at Kir4.1 (CHO-K1, JX3212 3 µM (Fig 2D), read-out: Mutation: Kir4.1 WT inhibition, single recordings), 92.1%. For the same molecule, the inhibition at 10 µM amounted to 96 ± 1.52% on Kir4.1 (+50 mV, read-out: Kir4.1 Inhibition ± SD (%) at 10 μM, +50 mV) and 97.3 ± 1.01% at Kir4.1 (-120 mV, read-out: Kir4.1 Inhibition ± SD (%) at 10 μM, -120 mV). Besides, the “Kir isoforms: Kir4.1 inhibition, single recordings” value at Kir4.1 (JX3212 3 µM (Fig 2A)) was 94.131 and 95.7029. On Kir4.1 (JX3212 3 µM (Fig 2D)), the “Mutation: Kir4.1 WT inhibition, single recordings” value is 94.7739 and 90.2954. The “improvement in target activity over lead EHop-016” value on Kir4.1 (Kir4.1 IC50 ratio) was determined as 2.6 fold. For the same molecule, the half-maximal inhibitory concentration (IC50) on Kir4.1 (CHO cells transiently expressing Kir4.1, +50 mV, read-out: IC50 for Kir4.1 inhibition (+50 mV, outward currents)) was determined as 190 nM; on Kir4.1 (CHO cells transiently expressing Kir4.1, −120 mV, read-out: IC50 for Kir4.1 inhibition (−120 mV, inward currents)) it was 280 nM; at hERG, 1.02 µM.

The inhibition is the change of the read-out against control, counted positive when it falls. Broadly, the IC50 is the concentration at which inhibition is half-maximal.
